Measured values: a compilation of properties of binary mixtures (doi:10.3390/app10238342)

Test: xn = mol fraction of the nth substance listed
Conditions: 96.7 kPa

CS(C)=O + CC(=O)[O-].CCCCCCn1cc[n+](C)c1
x2 = 0
Conditions	viscosity [mPa·s]
303.15 K	1.81
308.15 K	1.66
313.15 K	1.52
318.15 K	1.4
323.15 K	1.3
328.15 K	1.2
338.15 K	1.04

CC(=O)[O-].CCCCCCn1cc[n+](C)c1 + CS(C)=O
viscosity [mPa·s]
Conditions	x1 = 0.057	x1 = 0.187	x1 = 0.257	x1 = 0.341	x1 = 0.446	x1 = 0.58	x1 = 0.757	x1 = 0.868	x1 = 1
303.15 K	2.7	4.6	9.2	18.7	41	74	250	420	800
308.15 K	2.46	–	–	15.8	32	60	182	290	530
313.15 K	–	3.7	6.9	13	27	–	133	212	370
318.15 K	2	3.2	5.9	10.8	–	41	–	156	260
323.15 K	1.86	2.9	5.2	9.3	17.9	35	78	115	190
328.15 K	1.72	2.6	4.7	8.1	14.7	29	60	88	145
333.15 K	1.58	2.31	4.2	–	–	25	47	68	110
338.15 K	1.47	–	3.6	6.4	10.9	21.3	–	55	88
